Legend:
[1] = test system: NDM-C. freundii (NDM-1^+); experiment: Microdilution MIC/MBC and checkerboard assay; format: cell-based, Citrobacter freundii
NDM-HK PCV = experiment: Microdilution MIC and checkerboard assay; format: cell-based, E. coli
Method: The bacteria employed for cell-based and animal studies are listed in Supplementary Table 1. All the E. coli variants were made as described below. The NDM-HK PCV was screened by 20th-generation serial passages of NDM-HK in antibiotic-free medium.
MIC values were determined by standard broth micro-dilution method (Clinical and Laboratory Standards Institute (CLSI) M100-S20, 2010)[64]. Briefly, bacterial cells were cultured in LB broth overnight at 37 °C at 250 rpm and the OD was measured at 600 nm (OD600). The bacterial density was adjusted to about 1 × 10^6 CFU mL^−1 and checked by CFU counting on agar plates afterwards. Tested antibiotics or Bi(III) compounds were added triplicately into individual wells of flat-bottomed 96-well plates and performed 2-fold serial dilution, followed by addition of prepared bacterial inocula. The plate was then incubated at 37 °C for overnight. […] The MIC was determined as the lowest concentration of a drug that could inhibit the growth of microorganism by both visual reading and OD reading at 600 nm using a microtiter plate reader.
Other procedures were kept strictly the same. […] Synergism was defined when FICI ≤ 0.5, indifference was defined when FICI > 0.5 and < 4, and antagonism was defined when FICI≥4[65]. […] All of the determinations were performed at least in triplicate on different days.

E. coli ATCC 25922 = experiment: Microdilution MIC assay; format: cell-based
Description: (§1) Other procedures were kept strictly the same.

E. coli BL21(DE3) = experiment: Microdilution MIC assay; format: cell-based
Description: as §1

E. coli Rosetta(DE3) = experiment: Microdilution MIC assay; format: cell-based
Description: as §1

NDM-HK [2] = experiment: In vitro cell infection assay (MDCK cells); format: cell-based, E. coli
Method: MDCK cell was cultured in minimum essential Media (MEM) supplemented with fetal bovine serum (FBS, 10%) and grown at 37 °C in 5% CO2-humidified atmosphere for 3 days. About 1.0 × 10^5 MDCK cells were seeded per well in 24-well plates and incubated as described above for 48 h to ensure confluency. Logarithmic cultures of NDM-HK were washed with PBS for three times and re-suspended in MEM/10% FBS resulting in the initial bacterial density of about 2.0 × 10^7 CFU mL^−1. Then, 500 μL of bacterial suspension were added to each well and substituted for the previous MDCK culture medium. The plates were centrifuged at 800 × g for 10 min and then incubated for another 6 h, executing the bacterial infection at multiplicity of infection (MOI) of 200. We then used two infection models for examination, viz, the cell-associated bacterial infection and cell-invaded bacterial infection. The cell-associated bacteria are herein defined as bacteria that attach to, penetrate, or transcytose in MDCK cells, while the cell-invaded bacteria are defined as bacteria that penetrate or transcytose MDCK cells. For the cell-invaded infection, the infected cells were incubated in culture medium supplemented with ciprofloxacin (100 µg mL^−1) for 1 h to remove extracellular bacteria. Then, the treated cells were washed vigorously with PBS for six times and replenished with culture medium. For the cell-associated infection, the infected cells were only washed vigorously with PBS for six times to remove unbound bacteria. The infected MDCK cells were then exposed to either MER or CBS, or their combination for overnight under identical cell culture condition. Cells in the absence of drugs served as a control. The bacterial loads were examined by lysing MDCK cells with 1% Triton X-100 in PBS and serially diluting the resulting lysates to enumerate bacterial colonies by agar plating. The assay was performed in triplicate, repeated three times, and results were expressed as average ± SD.

NDM-HK [3] = experiment: Murine peritonitis infection, mucin-free model; format: in vivo, BALB/c mice; details: without mucin; MER 50 mg kg^−1 + CBS 50 mg kg^−1, up to 86 h
Description: All experiments were approved by, and performed in accordance with the guidelines approved by Committee on the Use of Live Animals in Teaching and Research (CULATR), the University of Hong Kong. A total of 6–8-week-old, female BALB/c mice (18–22 g) were purchased from Charles River Laboratories, Inc. and were used in all mouse studies. The animals were randomized to cages for each experiment.
In mucin-free survival experiment, the mice were infected with a dose of 5 × 10^7 CFU of NDM-HK in PBS. The mice received monotherapy of MER (50 mg kg^−1) or CBS (50 mg kg^−1), or combination therapy 0.5 h post infection (n = 5 for each group). Other experimental operations and conditions were kept the same as that in mucin-assisted model. Body weights and mice survival were monitored for endpoint till endpoint of the experiment.

NDM-1 = NDM-1 (Klebsiella pneumoniae, UniProt C7C422); format: cell-based; design: endogenous in cells; host or cells: E. coli clinical isolate NDM-HK; details: NDM-HK cultured with 100 µM compound; control 50.1 °C
Chain of NDM-1 (C7C422 29-270 limits assumed): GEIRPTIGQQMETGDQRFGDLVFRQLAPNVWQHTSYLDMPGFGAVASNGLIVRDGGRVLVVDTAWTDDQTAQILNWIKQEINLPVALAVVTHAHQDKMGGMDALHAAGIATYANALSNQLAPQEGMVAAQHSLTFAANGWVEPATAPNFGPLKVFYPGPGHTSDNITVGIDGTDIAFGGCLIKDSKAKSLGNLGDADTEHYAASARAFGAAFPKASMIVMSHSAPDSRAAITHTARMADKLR
Method: The cellular thermal shift assay was performed according to a standard method. Clinical isolate of NDM-1-positive E. coli (NDM-HK) was cultured overnight in the absence or presence of 100 µM Bi(III) compounds, i.e., CBS, Bi(NAC)3, Bi(NIT)3. The bacterial pellets were harvested and washed with PBS for 4 times. The cell suspensions were aliquoted into PCR tubes and heat treatment was performed at the designated temperature ranging from 40 °C to 70 °C for 3 min in a 96-well thermal cycler. The tubes were cooled immediately at room temperature for another 3 min after heating and the heating procedures were repeated for three cycles. For the cell lysis, the samples were frozen–thawed for two cycles in liquid nitrogen and thermal cycler set at 25 °C. The samples were vortexed gently after each cycle and were centrifuged at 20,000 × g to obtain the supernatant when the second cycle was finished. All the samples were subjected to western blot analysis for detection and quantification of NDM-1 content as described above.

colloidal bismuth subcitrate [CBS]
MBC of MER in combination with compound at 32 µg mL^-1 ([1]; NDM-C. freundii (NDM-CF)): 1 µg/mL
MIC of MER in combination with compound at 32 µg mL^-1 ([1]; NDM-C. freundii (NDM-CF)): 0.5 µg/mL
MBC of Bi(III) compound alone ([1]; NDM-CF): > 256 µg/mL
MIC of Bi(III) compound alone ([1]; NDM-CF): > 256 µg/mL
FICI ([1]; NDM-CF, MER + compound, 256 µg mL^-1 set as MIC of Bi(III)): 0.125
growth inhibition by CBS itself (NDM-HK PCV; NDM-1-negative NDM-HK PCV, even at 256 µg mL^-1): no or minor growth inhibition
MIC of MER in combination with CBS at 16 µg mL-1 (NDM-HK PCV; NDM-HK PCV): 0.03 µg/mL
MIC of MER in combination with CBS at 32 µg mL-1 (NDM-HK PCV; NDM-HK PCV): 0.03 µg/mL
MIC of MER in combination with CBS at 256 µg mL-1 (NDM-HK PCV; NDM-HK PCV): 0.03 µg/mL
FICI (NDM-HK PCV; NDM-HK PCV, MER + CBS): 2
MIC of MER in combination with CBS at 16 µg mL-1 (E. coli ATCC 25922): 0.03 µg/mL
MIC of MER in combination with CBS at 32 µg mL-1 (E. coli ATCC 25922): 0.03 µg/mL
MIC of MER in combination with CBS at 256 µg mL-1 (E. coli ATCC 25922): 0.03 µg/mL
MIC of MER in combination with CBS at 16 µg mL-1 (E. coli BL21(DE3)): 0.03 µg/mL
MIC of MER in combination with CBS at 32 µg mL-1 (E. coli BL21(DE3)): 0.03 µg/mL
MIC of MER in combination with CBS at 256 µg mL-1 (E. coli BL21(DE3)): 0.03 µg/mL
MIC of MER in combination with CBS at 16 µg mL-1 (E. coli Rosetta(DE3)): 0.03 µg/mL
MIC of MER in combination with CBS at 32 µg mL-1 (E. coli Rosetta(DE3)): 0.03 µg/mL
MIC of MER in combination with CBS at 256 µg mL-1 (E. coli Rosetta(DE3)): 0.03 µg/mL
decrease in the bacterial load, bacteria-invaded model (NDM-HK [2]; MER and CBS combination): more than 100 fold
viable bacterial loads, cell-associated infection (NDM-HK [2]; MOI 200, MER and CBS (32 μg mL^−1) in combination, overnight): ~10^4 CFU
mice survived, MER and CBS co-administrated (NDM-HK [3]): 40%
NDM-1 melting temperature, treated group (NDM-1): 48 °C

— paper PMC5789847, “Bismuth antimicrobial drugs serve as broad-spectrum metallo-β-lactamase inhibitors” (Nature Communications, 2018)
